Results taken from PMC11547015 (International Journal of Molecular Sciences, 2024).
“And” between values parts separate entries of the source, which are not always exact repeats. Identical values can stand only once. “Also recorded” adds a separate entry of the source. Like-named read-outs stand apart in the source and are kept apart here.

Target: T1, human D2 receptor (Homo sapiens, UniProt P14416)
T1 construct: host or cells: CHO-K1
Test: Dopamine assay: functional cAMP read-out (HitHunter cAMP XS+, Gi/o agonist format)
Assay type: cell-based
Conditions: for EC50: CHO-K1 cells overexpressing the human D2 receptor, cAMP read-out, 25 µM forskolin, n = 2 independent experiments; for dopaminergic activity (in words): isolated compounds, D2 receptor activity assay; for change in activity on the D2 receptor relative to 7: compared with 3-epi-maslinic acid (7)
Method: Dopaminergic activity was determined with a functional assay in CHO-K1 cells overexpressing the human D2 receptor, using a cAMP read-out (Eurofins DiscoverX Corporation, Fremont, CA, USA). The cells (5000 cells/cm^2) were seeded in a total volume of 20 μL onto white 384-well microplates and incubated at 37 °C for 18 h prior to testing. cAMP modulation was determined using the DiscoverX HitHunter cAMP XS+ assay. Since the D2 receptor couples mainly to Gi/o (inhibitory towards cAMP), the assay was run in Gi/o agonist format. In brief, the cells were incubated with the samples in the presence of 25 µM forskolin to induce a response. Medium was aspirated from cells and replaced with 10 µL HBSS/10 mM Hepes (assay buffer). Intermediate dilution of sample stocks was performed in the assay buffer to generate a concentration 4-fold higher (4×) than the final in-well concentration. A total of 5 µL of 4× sample was added to the cells, followed by 5 µL 4× EC80 forskolin in the assay buffer and incubated at 37 °C for 30 min. The final DMSO concentration (vehicle) was 1%. After appropriate compound incubation, the assay signal was generated through incubation with 5 µL of cAMP XS + Ab reagent followed by 20 μL cAMP XS + ED/CL lysis cocktail for one hour followed by incubation with 20 μL cAMP XS + EA reagent for three hours at room temperature. The microplates were read following signal generation with an Envision^TM instrument (PerkinElmer, Waltham, MA, USA) for chemiluminescent signal detection.
For Gi agonist mode assays, percentage activity was calculated using the following formula: % Activity = 100% × (1 − (mean RLU of test sample − mean RLU of MAX control)/(mean RLU of vehicle control − mean RLU of MAX control)). Concentration–response curves were generated using EC50 using Graphpad Prism version 9.0 (Graphpad Software, Boston, MA, USA), and curve fitting was performed using non-linear regression analysis applying the following variable slope equation: Y = Bottom + (Top − Bottom)/(1 + 10^((LogEC50 − X) × HillSlope)).

[1] = read-out: EC50 at the D2 receptor

T1 sequence (P14416 whole entry): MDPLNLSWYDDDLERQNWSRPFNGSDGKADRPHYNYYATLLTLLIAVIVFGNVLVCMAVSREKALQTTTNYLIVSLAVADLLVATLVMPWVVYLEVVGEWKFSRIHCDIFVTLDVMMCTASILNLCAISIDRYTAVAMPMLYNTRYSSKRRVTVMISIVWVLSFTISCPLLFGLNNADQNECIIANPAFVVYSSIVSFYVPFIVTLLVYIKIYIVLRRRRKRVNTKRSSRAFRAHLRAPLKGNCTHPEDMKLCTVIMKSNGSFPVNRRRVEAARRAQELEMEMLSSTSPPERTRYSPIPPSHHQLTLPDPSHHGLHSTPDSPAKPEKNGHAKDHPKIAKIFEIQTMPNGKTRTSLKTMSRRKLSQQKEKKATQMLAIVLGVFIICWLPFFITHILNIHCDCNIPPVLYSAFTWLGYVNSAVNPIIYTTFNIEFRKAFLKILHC

EC50 [1] [µM] | SMILES | EC50 (EC50 at the D2 receptor) | dopaminergic activity (in words) | also measured
 | CC1(C)CC[C@]2(C(=O)O)CC[C@]3(C)C(=CC[C@@H]4[C@@]5(C)CC[C@H](O)C(C)(C)[C@@H]5CC[C@]43C)[C@@H]2C1 [oleanolic acid, reference compound] | ≥ 50 µM |  | 
> 50 | C=CC(C)(O)CC[C@H]1[C@@]2(C)CCCC(C)(C)[C@@H]2CC[C@@]1(C)O (stereo partly shown) [compound 5, Viteagnusin C] |  | either negligible or no dopaminergic activity; also recorded: either weak or no dopaminergic activity | 
> 50 | CC(=O)O[C@@H]1C[C@@H](C)[C@](O)(CCC2=CC(=O)OC2)[C@@]2(C)CCCC(C)(C)[C@H]12 [compound 3, Vitexilactone] |  |  | 
 | CC(=O)O[C@@H]1C[C@@H](C)[C@](O)(CCC2=CC(=O)OC2O)[C@@]2(C)CCCC(C)(C)[C@H]12 (stereo partly shown) [compound 1, Viteagnusin I] | 6.61 µM and 6.6 µM |  | IC50: 6.6 µM
 | CC1(C)CC[C@]2(C(=O)O)CC[C@]3(C)C(=CC[C@@H]4[C@@]5(C)C[C@@H](O)[C@@H](O)C(C)(C)[C@@H]5CC[C@]43C)[C@@H]2C1 [compound 7, 3-epi-Maslinic acid] | 5.1 µM | active | 
 | C[C@H]1[C@H](C)CC[C@]2(C(=O)O)CC[C@]3(C)C(=CC[C@@H]4[C@@]5(C)C[C@@H](O)[C@H](O)C(C)(C)[C@@H]5CC[C@]43C)[C@H]12 [compound 10, Corosolic acid] | > 50 µM |  | change in activity on the D2 receptor relative to 9 (epimers 9 and 10, differing at C3): > 5 fold
≥ 50 | C[C@H]1[C@H](C)CC[C@]2(C(=O)O)CC[C@]3(C)C(=CC[C@@H]4[C@@]5(C)CC[C@H](O)C(C)(C)[C@@H]5CC[C@]43C)[C@H]12 [ursolic acid, reference compound] |  |  | 
 | CC1(C)CC[C@]2(C(=O)O)CC[C@]3(C)C(=CC[C@@H]4[C@@]5(C)C[C@@H](O)[C@H](O)C(C)(C)[C@@H]5CC[C@]43C)[C@@H]2C1 [compound 8, Maslinic acid] | 21.3 µM | active | change in activity on the D2 receptor relative to 7: 4 fold
≥ 50 | CC1(C)CC[C@]2(C(=O)O)CC[C@]3(C)C(=CC[C@@H]4[C@@]5(C)C[C@@H](O)[C@H](O)[C@@](C)(CO)[C@@H]5CC[C@]43C)[C@@H]2C1 [arjunolic acid, reference compound] |  |  | 
> 50 | C[C@@H]1CC[C@]2(C(=O)O)CC[C@]3(C)C(=CC[C@@H]4[C@@]5(C)C[C@@H](O)[C@H](O)C(C)(C)[C@@H]5CC[C@]43C)[C@@H]2[C@]1(C)O [compound 12, Tormentic acid] |  |  | 
12.8 | CC(=O)O[C@@H]1C[C@@H](C)[C@](O)(CCc2ccoc2)[C@@]2(C)CCCC(C)(C)[C@H]12 [compound 2, Rotundifuran] |  |  | 
 | C[C@H]1[C@H](C)CC[C@]2(C(=O)O)CC[C@]3(C)C(=CC[C@@H]4[C@@]5(C)C[C@@H](O)[C@@H](O)C(C)(C)[C@@H]5CC[C@]43C)[C@H]12 [compound 9, 3-epi-Corosolic acid] | 10.7 µM | active | change in activity on the D2 receptor relative to 7: 2 fold
> 50 | C[C@@H]1CC[C@]2(C(=O)O)CC[C@]3(C)C(=CC[C@@H]4[C@@]5(C)C[C@@H](O)[C@@H](O)C(C)(C)[C@@H]5CC[C@]43C)[C@@H]2[C@]1(C)O [compound 11, Euscaphic acid] |  |  | 
 | C=CC(C)(O)CC[C@@]1(C)C2=C([C@H](OC(C)=O)[C@H](OC(C)=O)[C@H]1C)C(C)(C)CCC2 (stereo partly shown) [compound 6, Vitetrifolin D] | > 50 µM | either negligible or no dopaminergic activity; also recorded: either weak or no dopaminergic activity | 
24.3 | C=CC(C)(O)CC[C@@H]1[C@@]2(C)CCCC(C)(C)[C@@H]2CC[C@]1(C)O (stereo partly drawn) [compound 4, 8-epi-Sclareol] |  | either negligible or no dopaminergic activity; also recorded: either weak or no dopaminergic activity | 
